Reference: patent US20050245510A1 (Boehringer Ingelheim Vetmedica GmbH, priority 2004, published 2005)

Legend:
[1] = system: E. coli endotoxin 026:B6 lipopolysaccharide induced mastitis in lactating cows; format: in vivo
Experimental: A blinded in-vivo study with a parallel group design was conducted in 2003. The study was conducted according to Good Laboratory Practices.
The animals were clinically examined before endotoxin-challenge and at 2 h (before treatment), 4 h, 6 h, 8 h, 10 h, 24 h, 34 h, 48 h, 72 h, 7 days, and 14 days after endotoxin-challenge.
The size of the challenged udder quarter was documented using the following score: • 0 Normal • 1 Slight increase up to 20% • 2 20-50% increase • 3 More than 50% increase
Ruminal contractions during a 2 minutes period were examined by auscultation in the left paralumbar fossa. In painful conditions of any kind, the frequency of ruminal contractions in ruminants tends to decrease.
Milk samples for analysis of thromboxane B2 (TBX)—a relevant mediator of inflammation—were taken from the endotoxin-challenged quarter before endotoxin challenge and at 2 h (before treatment), 4 h, 6 h, 8 h, 10 h, and 24 h after endotoxin-challenge.
Milk somatic cell count (SCC) was measured before endotoxin-challenge and at 10 h, 24 h, 34 h, 48 h, 72 h, 7 days, and 14 days after challenge.

mastitis cases = conditions: infused intramammarily in special vehicle together with amoxicillin/clavulanic acid; cited from earlier work

**Q.** For `Cc1cnc(NC(=O)C2=C(O)c3ccccc3S(=O)(=O)N2C)s1` [meloxicam], which “ruminal contractions in 2 min, mean ± S.D.” value ([1]; 30 mg meloxicam per quarter, at 24 h after challenge) is on record?
**A.** The value was 3.4±0.55.

**Q.** What about the “size of challenged udder quarter, mean score ± S.D.” value ([1]; 30 mg meloxicam per quarter, intramammary 2 h after challenge, at 10 h after challenge) of the same molecule?
**A.** Its value is 1.2±0.44 score (0-3).

**Q.** What about the “standardised difference of udder size score versus untreated” value ([1]; 30 mg meloxicam, 10 h, difference in means divided by larger S.D. (untreated group)) of the same molecule?
**A.** The value was 1.2.

**Q.** What about the “standardised difference of ruminal contractions versus untreated” value ([1]; 30 mg meloxicam, 24 h, calculated with larger S.D. (untreated group)) of the same molecule?
**A.** Its value is 0.9.

**Q.** And the “local and systemic tolerance” value ([1]; intramammary, dose range 10-50 mg per affected udder quarter)?
**A.** The value was “good”.

**Q.** Which “effect on pain perception” value (mastitis cases) does the source give for `Cc1c(Nc2ncccc2C(=O)O)cccc1C(F)(F)F` [flunixin, flunixin meglumine] here?
**A.** Its value is “no beneficial effect on pain perception”.
